In patent US20180235234A1, “COMPOSITIONS COMPRISING A BIOLOGICAL CONTROL AGENT AND AN INSECTICIDE” (priority 2012, published 2018):

Columns and labels:
Format in all cases: in vivo
[1] = system: Myzus persicae; test: Myzus persicae spray test (MYZUPE), Chinese cabbage leaf disks; details: mortality
Method: (§1) For all examples the efficiencies of the compositions comprising at least one BCA and at least one specific insecticide has been determined by the “Colby-formula”. The expected efficacy of a given combination of two compounds is calculated as follows (see Colby, S. R., “Calculating Synergistic and antagonistic Responses of Herbicide Combinations”, Weeds 15, pp. 20-22, 1967): If • X is the efficacy expressed in % mortality of the untreated control for test compound A at a concentration of m ppm respectively m g/ha, • Y is the efficacy expressed in % mortality of the untreated control for test compound B at a concentration of n ppm respectively n g/ha, • E is the efficacy expressed in % mortality of the untreated control using the mixture of A and B at m and n ppm respectively m and n g /ha, then
(§2) If the observed insecticidal efficacy of the combination is higher than the one calculated as “E”, then the combination of the two compounds is more than additive, i.e., there is a synergistic effect.
Myzus persicae—Spray Test (MYZUPE)
To produce a suitable preparation of active compound, 1 part by weight of active compound is mixed with the stated amount of solvent and emulsifier, and the concentrate is diluted with emulsifier-containing water to the desired concentration. To produce a suitable preparation of a spore suspension the spores are diluted with emulsifier-containing water to the desired concentration.
Chinese cabbage (Brassica pekinensis) leaf—disks infected with all instars of the green peach aphid (Myzus persicae), are sprayed with a preparation of the active ingredient of the desired concentration.
After the specified period of time, mortality in % is determined. 100% means all aphids have been killed; 0% means none of the aphids have been killed. The mortality values determined thus are recalculated using the Colby-formula (see above).

[2] = system: Phaedon cochleariae; test: Phaedon cochleariae spray test, Chinese cabbage leaf disks; details: 0.16 g ai/ha; mortality
Method: as §1, §2
Phaedon cochleariae—Spray Test […]
After the specified period of time, mortality in % is determined. […] The mortality values determined thus are recalculated using the Colby-formula (see above).

[3] = system: Spodoptera frugiperda; test: Spodoptera frugiperda spray test, maize leaf sections; details: mortality
Method: as §1, §2
(§3) Spodoptera frugiperda—Spray Test
To produce a suitable preparation of the active compound, 1 part by weight of active compound is mixed with the stated amount of solvent and emulsifier, and the concentrate is diluted with emulsifier-containing water to the desired concentration. To produce a suitable preparation of a spore suspension the spores are diluted with emulsifier-containing water to the desired concentration.
Maize (Zea mais) leaf sections are sprayed with a preparation of the active ingredient of the desired concentration. Once dry, the leaf sections are infested with fall armyworm larvae (Spodoptera frugiperda).
After the specified period of time, mortality in % is determined. 100% means all caterpillars have been killed and 0% means none of the caterpillars have been killed. The mortality values determined thus are recalculated using the Colby-formula (see above).

[4] = system: Aphis gossypii; test: Aphis gossypii spray test, cotton leaves; details: 2 ppm; mortality
Method: as §1, §2
Aphis gossypii—Spray Test […]
After the specified period of time, the mortality in % is determined. […] The mortality values determined thus are recalculated using the Colby-formula (see above).

[5] = system: Spodoptera frugiperda; test: Spodoptera frugiperda spray test, cotton leaves; details: mortality
Method: as §3
To produce a suitable preparation of active compound, 1 part by weight of active compound was mixed with the stated amount of solvent and was diluted with water, containing an emulsifier concentration of 1000 ppm, to the desired concentration. To produce a suitable preparation of a spore suspension the spores were diluted with emulsifier-containing water to the desired concentration. Further test concentrations were prepared by dilution with emulsifier-containing water. Ammonium salt and/or penetration enhancer in a dosage of 1000 ppm were added if necessary.
Cotton leaves (Gossypium hirsutum) were treated by being sprayed with the preparation of the active compound of the desired concentration and were infested with caterpillars of the fall army worm (Spodoptera frugiperda).
After the specified period of time % mortality was determined. 100% means all the caterpillars were killed, and 0% means none of the caterpillars were killed.

`CC1(C)C(C=C(Cl)Cl)C1C(=O)OC(C#N)c1ccc(F)c(Oc2ccccc2)c1` (stereo not drawn) [ß-Cyfluthrin (I106), beta-Cyfluthrin] was tested. Which “Efficacy in % after 1 d” value ([1]; 0.16 g/ha) did it give?
Its value is 0%.

And the “Efficacy in % after 6 d” value ([1]; 0.16 g/ha)?
The value was 0%.

What about the “Efficacy in % after 6 d” value ([1]; 2 g/ha) of the same compound?
Its value is 0%.

And the “Efficacy in % after 6 d” value [2]?
Its value is 0%.

What about the “Efficacy in % after 6 d” value ([3]; 0.16 g ai/ha) of the same compound?
The value was 0%.

What about the “Efficacy in % after 6 d” value ([3]; 0.4 g ai/ha) of the same compound?
The value was 33%.

For `Cc1c(F)c(F)c(COC(=O)[C@@H]2[C@H](/C=C(\Cl)C(F)(F)F)C2(C)C)c(F)c1F` (racemic) [Tefluthrin (I134), Tefluthrin], which “Efficacy in % after 6 d” value ([1]; 2 g/ha) is on record?
The value was 0%.

What about the “Efficacy in % after 6 d” value ([3]; 0.4 g ai/ha) of the same compound?
Its value is 17%.

And the “Efficacy in % after 6 d” value ([3]; 4 g ai/ha)?
The value was 50%.

And the “Efficacy in % after 2 d” value ([3]; 10 g ai/ha)?
Its value is 0%.

What about the “Efficacy in % after 1 d” value [4] of the same compound?
The value was 15%.

`CC1(C)[C@H](C(=O)O[C@H](C#N)c2cccc(Oc3ccccc3)c2)[C@@H]1C=C(Br)Br` [Deltamethrin (I116), Deltamethrin] was tested. Which “Efficacy in % after 6 d” value ([1]; 0.032 g/ha) did it give?
The value was 0%.

For `Cc1c(COC(=O)[C@@H]2[C@H](/C=C(\Cl)C(F)(F)F)C2(C)C)cccc1-c1ccccc1` (racemic) [Bifenthrin], which “Efficacy in % after 3 days” value ([5]; 0.5 ppm) is on record?
The value was 0%.

What about the “Efficacy in % after 6 days” value ([5]; 0.5 ppm) of the same compound?
The value was 20%.

What about the “Efficacy in % after 2 days” value ([5]; 2 ppm) of the same compound?
The value was 20%.

What about the “Efficacy in % after 2 days” value ([5]; 8 ppm) of the same compound?
Its value is 60%.
